Measured values reported in US9029544B2, “Tricyclic pyridine derivatives, medicaments containing such compounds, their use and process for their preparation” (Boehringer Ingelheim International GmbH, priority 2010, dated 2015).

Target: T1, Recombinant human CETP (Homo sapiens, UniProt P11597)
T1 construct: made in house; host or cells: CHO cells (secreted into conditioned medium)
T1 sequence (P11597 18-493): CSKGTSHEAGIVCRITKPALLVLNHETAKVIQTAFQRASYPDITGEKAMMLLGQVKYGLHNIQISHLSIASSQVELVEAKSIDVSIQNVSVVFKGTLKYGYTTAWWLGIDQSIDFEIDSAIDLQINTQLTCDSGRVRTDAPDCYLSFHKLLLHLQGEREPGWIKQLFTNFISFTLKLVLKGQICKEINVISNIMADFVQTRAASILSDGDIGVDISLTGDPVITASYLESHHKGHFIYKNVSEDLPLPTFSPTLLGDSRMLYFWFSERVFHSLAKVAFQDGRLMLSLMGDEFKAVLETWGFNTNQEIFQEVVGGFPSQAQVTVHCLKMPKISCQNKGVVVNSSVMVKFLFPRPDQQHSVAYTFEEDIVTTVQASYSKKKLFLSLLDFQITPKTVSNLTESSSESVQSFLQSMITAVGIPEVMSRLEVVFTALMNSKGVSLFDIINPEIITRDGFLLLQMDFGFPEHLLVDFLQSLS
Assay: CETP in vitro assay (fluorometric assay, Roar Biomedical; cholesterol ester transfer from HDL to LDL)
Format: biochemical
Conditions: recombinant human CETP from CHO cells; 3 hours at 37° C.; fluorescence 485/535 nm; compound concentrations between 1 nM and 30 μM; read-out: IC50 values for inhibition of CETP
Procedure: CETP inhibitory activity of compounds of the present invention can be determined in a fluorometric assay purchased from Roar Biomedical, Inc. (New York, N.Y., USA). […] Recombinant human CETP was partially purified from medium conditioned by CETP expressing CHO cells. In a 384 well format 2.5 μl of compound solution in DMSO was combined with 2 μl of donor solution, 2 μl of acceptor solution and 0.8 μl of recombinant human CETP solution in a total volume of 100 μl with assay buffer and incubated for 3 hours at 37° C. The fluorescence intensity was measured at excitation wavelength of 485 nm and emission wavelength of 535 nm. IC50 values are calculated from dose effect curves from compound concentrations between 1 nM and 30 μM.

SMILES | IC50 [nM]
CC(C)c1nc2c(c3c1[C@@H](c1ccc(C(F)(F)F)nc1)OC31CCCC1)[C@@H](O)CC(C)(C)[C@H]2O [4(1), (3′R,6′R,9′S)-4′-isopropyl-7′,7′-dimethyl-3′-(6-(trifluoromethyl)pyridin-3-yl)-6′,7′,8′,9′-tetrahydro-3′H-spiro[cyclopentane-1,1′-furo[3,4-c]quinoline]-6′,9′-diol] | 127
CC(=O)O[C@H]1c2nc(C(C)C)c3c(c2[C@@H](O)CC1(C)C)C1(CCCC1)O[C@@H]3c1ccc(C(F)(F)F)nc1 [1(46), (3′R,6′R,9′S)-9′-hydroxy-4′-isopropyl-7′,7′-dimethyl-3′-(6-(trifluoromethyl)pyridin-3-yl)-6′,7′,8′,9′-tetrahydro-3′H-spiro[cyclopentane-1,1′-furo[3,4-c]quinoline]-6′-yl acetate] | 1830
CC(C)c1nc2c(c3c1[C@@H](c1ncc(C(F)(F)F)cc1F)OC31CCOCC1)[C@@H](O)CC(C)(C)C2 [5(2), (3S,9S)-3-(3-fluoro-5-(trifluoromethyl)pyridin-2-yl)-4-isopropyl-7,7-dimethyl-2′,3′,5′,6,6′,7,8,9-octahydro-3H-spiro[furo[3,4-c]quinoline-1,4′-pyran]-9-ol] | 206
CC1(C)C[C@H](O)c2c(nc(C3CCOCC3)c3c2C2(CCOCC2)O[C@@H]3c2ccc(S(F)(F)(F)(F)F)cc2)[C@@H]1O [4(12), (3R,6R,9S)-7,7-dimethyl-4-(tetrahydro-2H-pyran-4-yl)-3-(4-(pentafluorosulfanyl)phenyl)-2′,3′,5′,6,6′,7,8,9-octahydro-3H-spiro[furo[3,4-c]quinoline-1,4′-pyran]-6,9-diol] | 70
CC(C)c1nc2c(c3c1[C@H](c1ccc(C(F)(F)F)cc1)OC31CCCC1)[C@H](O)CC(C)(C)C2 (single isomer, unassigned) [2 (Diastereomer 1), (3′S,9′R)-4′-isopropyl-7′,7′-dimethyl-3′-(4-(trifluoromethyl)phenyl)-6′,7′,8′,9′-tetrahydro-3′H-spiro[cyclopentane-1,1′-furo[3,4-c]quinolin]-9′-ol] | 699
CC(C)c1nc2c(c3c1[C@@H](c1ccc(C(C)(C)C)cc1)OC31CCCC1)[C@@H](O)CC(C)(C)[C@@H]2O [4(4), (3′R,6′S,9′S)-3′-(4-tert-butylphenyl)-4′-isopropyl-7′,7′-dimethyl-6′,7′,8′,9′-tetrahydro-3′H-spiro[cyclopentane-1,1′-furo[3,4-c]quinoline]-6′,9′-diol] | 207
CC(C)c1nc2c(c3c1[C@@H](c1ccc(C(F)(F)F)nc1)OC31CCOCC1)[C@@H](O)CC(C)(C)[C@@H]2O [5(7), (3R,6S,9S)-4-isopropyl-7,7-dimethyl-3-(6-(trifluoromethyl)pyridin-3-yl)-2′,3′,5′,6,6′,7,8,9-octahydro-3H-spiro[furo[3,4-c]quinoline-1,4′-pyran]-6,9-diol] | 4120
CC(C)c1nc2c(c3c1[C@@H](c1ccc(C(F)(F)C(F)(F)F)cc1)OC31CCCC1)[C@@H](O)CC(C)(C)C2 [1(65), (3′R,9′S)-4′-isopropyl-7′,7′-dimethyl-3′-(4-(perfluoroethyl)phenyl)-6′,7′,8′,9′-tetrahydro-3′H-spiro[cyclopentane-1,1′-furo[3,4-c]quinolin]-9′-ol] | 83
CC(=O)O[C@H]1c2nc(C(C)C)c3c(c2[C@@H](O)CC1(C)C)C1(CCOCC1)O[C@@H]3c1ccc(C(F)(F)F)cc1 [1(48), (3R,6R,9S)-9-hydroxy-4-isopropyl-7,7-dimethyl-3-(4-(trifluoromethyl)phenyl)-2′,3′,5′,6,6′,7,8,9-octahydro-3H-spiro[furo[3,4-c]quinoline-1,4′-pyran]-6-yl acetate] | 142
CC(C)c1nc2c(c3c1[C@@H](c1ccc(C(F)(F)F)nc1)OC31CCOCC1)[C@@H](O)CC(C)(C)C2 [1(47), (3R,9S)-4-isopropyl-7,7-dimethyl-3-(6-(trifluoromethyl)pyridin-3-yl)-2′,3′,5′,6,6′,7,8,9-octahydro-3H-spiro[furo[3,4-c]quinoline-1,4′-pyran]-9-ol] | 136

The next molecules have a lower IC50 than those just listed; values first:

IC50 [nM] | SMILES
13 | CC(C)c1nc2c(c3c1[C@@H](c1ccc(C(F)(F)F)cc1F)OC31CCOCC1)[C@@H](O)CC1(CCC1)C2 [1(51), (3S,9S)-3-(2-fluoro-4-(trifluoromethyl)phenyl)-4-isopropyl-7,7-(propan-1,3-diyl)-2′,3′,5′,6,6′,7,8,9-octahydro-3H-spiro[furo[3,4-c]quinoline-1,4′-pyran]-9-ol]
18 | CC(C)c1nc2c(c3c1[C@@H](c1ccc(C(F)(F)F)c(C#N)c1)OC31CCOCC1)[C@@H](O)CC1(CCC1)C2 [1(79), 5-((3R,9S)-9-hydroxy-4-isopropyl-7,7-(propan-1,3-diyl)-2′,3′,5′,6,6′,7,8,9-octahydro-3H-spiro[furo[3,4-c]quinoline-1,4′-pyran]-3-yl)-2-(trifluoromethyl)benzonitrile]
42 | CC(C)c1nc2c(c3c1[C@@H](c1ccc(C(F)(F)F)cn1)OC31CCOCC1)[C@@H](O)CC1(CCC1)[C@H]2O [5(8), (3S,6R,9S)-4-isopropyl-7,7-(propan-1,3-diyl)-3-(5-(trifluoromethyl)pyridin-2-yl)-2′,3′,5′,6,6′,7,8,9-octahydro-3H-spiro[furo[3,4-c]quinoline-1,4′-pyran]-6,9-diol]
21 | CC(C)c1nc2c(c3c1[C@@H](c1ccc(C(C)(C)C)cc1)OC31CCCC1)[C@@H](O)CC1(CCC1)C2 [1(62), (3′R,9′S)-3′-(4-tert-butylphenyl)-4′-isopropyl-7′,7′-(propan-1,3-diyl)-6′,7′,8′,9′-tetrahydro-3′H-spiro[cyclopentane-1,1′-furo[3,4-c]quinolin]-9′-ol]
15 | CC(C)c1nc2c(c3c1[C@@H](c1ccc(C(F)(F)F)c(C#N)c1)OC31CCOCC1)[C@@H](O)CC1(CCC1)[C@H]2O [4(10), 5-((3R,6R,9S)-6,9-dihydroxy-4-isopropyl-7,7-(propan-1,3-diyl)-2′,3′,5′,6,6′,7,8,9-octahydro-3H-spiro[furo[3,4-c]quinoline-1,4′-pyran]-3-yl)-2-(trifluoromethyl)benzonitrile]
21 | CC(C)c1nc2c(c3c1[C@@H](c1ccc(C(C)(C)C)cc1)OC31CCCC1)[C@@H](O)CC(C)(C)[C@H]2O [4(3), (3′R,6′R,9′S)-3′-(4-tert-butylphenyl)-4′-isopropyl-7′,7′-dimethyl-6′,7′,8′,9′-tetrahydro-3′H-spiro[cyclopentane-1,1′-furo[3,4-c]quinoline]-6′,9′-diol]
27 | CC(C)c1nc2c(c3c1[C@@H](c1ccc(C(F)(F)F)c(C#N)c1)OC31CCOCC1)[C@@H](O)CC(C)(C)[C@H]2O [4(15), 5-((3R,6R,9S)-6,9-dihydroxy-4-isopropyl-7,7-dimethyl-2′,3′,5′,6,6′,7,8,9-octahydro-3H-spiro[furo[3,4-c]quinoline-1,4′-pyran]-3-yl)-2-(trifluoromethyl)benzonitrile]
14 | CC(C)c1nc2c(c3c1[C@@H](c1ccc(S(F)(F)(F)(F)F)cc1)OC31CCOCC1)[C@@H](O)CC1(CCC1)[C@H]2O [4(8), (3R,6R,9S)-4-isopropyl-7,7-(propan-1,3-diyl)-3-(4-(pentafluorosulfanyl)phenyl)-2′,3′,5′,6,6′,7,8,9-octahydro-3H-spiro[furo[3,4-c]quinoline-1,4′-pyran]-6,9-diol]
